The values that follow come from patent US9512105B2, “1-substituted 4-arylpiperazine as kappa opioid receptor antagonists” (RESEARCH TRIANGLE INSTITUTE, priority 2011, dated 2016).

Series [1] has as its target T1, cloned human μ-opioid receptor (Homo sapiens, UniProt P35372).
T1 construct: expressed in transfected cells
Description: Inhibition of DAMGO-stimulated [35S]GTPγS binding. It counts as biochemical. (GTPγS is a poorly hydrolysed GTP analogue; its binding reports G protein activation.)

Series [2] deals with T2, cloned human δ-opioid receptor (Homo sapiens, UniProt P41143).
T2 construct: expressed in transfected cells
T2 sequence (P41143 whole entry): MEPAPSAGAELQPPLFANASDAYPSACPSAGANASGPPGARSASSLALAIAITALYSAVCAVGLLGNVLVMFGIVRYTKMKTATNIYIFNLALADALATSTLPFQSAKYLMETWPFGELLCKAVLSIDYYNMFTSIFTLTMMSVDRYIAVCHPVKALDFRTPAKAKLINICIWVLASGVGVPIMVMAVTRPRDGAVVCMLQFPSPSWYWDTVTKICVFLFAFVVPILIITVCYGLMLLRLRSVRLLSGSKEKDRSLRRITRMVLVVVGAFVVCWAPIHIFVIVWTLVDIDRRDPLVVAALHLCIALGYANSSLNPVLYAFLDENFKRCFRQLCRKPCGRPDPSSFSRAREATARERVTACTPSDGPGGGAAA
Description: Inhibition of DPDPE-stimulated [35S]GTPγS binding. It counts as biochemical.

For series [3], the target named is T3, cloned human κ-opioid receptor (Homo sapiens, UniProt P41145).
T3 construct: expressed in transfected cells
T3 sequence (P41145 whole entry): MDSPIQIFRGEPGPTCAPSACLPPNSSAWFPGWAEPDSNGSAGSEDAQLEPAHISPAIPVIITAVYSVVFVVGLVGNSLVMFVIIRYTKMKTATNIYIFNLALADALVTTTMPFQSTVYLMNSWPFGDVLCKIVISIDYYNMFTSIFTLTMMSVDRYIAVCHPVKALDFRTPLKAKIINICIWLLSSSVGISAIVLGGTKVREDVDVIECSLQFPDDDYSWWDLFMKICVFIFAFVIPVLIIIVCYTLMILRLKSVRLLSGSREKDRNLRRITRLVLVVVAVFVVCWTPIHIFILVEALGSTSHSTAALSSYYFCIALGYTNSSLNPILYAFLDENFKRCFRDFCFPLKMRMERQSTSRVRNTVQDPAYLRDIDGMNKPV
Description: Inhibition of U69,593-stimulated [35S]GTPγS binding. The series is classed as biochemical. Conditions: for δ/κ / μ/κ: ratio of Ke values; for δ/κ: selectivity for κ relative to δ; for μ/κ: selectivity for κ relative to μ.

Where [4] appears, read: antagonism of DAMGO-stimulated [35S]GTPγS binding, cloned human μ receptor, read-out: μ, DAMGO Ke.
Setting [5] is: antagonism of DPDPE-stimulated [35S]GTPγS binding, cloned human δ receptor, read-out: δ, DPDPE Ke.
The mark [6] stands for this setting: antagonism of U69,593-stimulated [35S]GTPγS binding, cloned human κ receptor, read-out: κ, U69,593 Ke.

Like-named read-outs stand apart in the source and are kept apart here.

T1 sequence (P35372 whole entry): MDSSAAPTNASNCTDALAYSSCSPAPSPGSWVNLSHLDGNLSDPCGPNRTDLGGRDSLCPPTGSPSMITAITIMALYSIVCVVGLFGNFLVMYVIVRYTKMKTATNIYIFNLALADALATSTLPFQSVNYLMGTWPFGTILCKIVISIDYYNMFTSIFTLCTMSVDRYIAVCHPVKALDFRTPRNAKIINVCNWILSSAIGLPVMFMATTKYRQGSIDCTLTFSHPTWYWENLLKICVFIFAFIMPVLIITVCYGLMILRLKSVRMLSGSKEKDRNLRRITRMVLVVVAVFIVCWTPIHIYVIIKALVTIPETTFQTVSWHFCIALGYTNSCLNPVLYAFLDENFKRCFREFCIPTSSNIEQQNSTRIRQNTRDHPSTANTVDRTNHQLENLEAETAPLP

As usually defined, the melting point is the temperature, or range, at which the solid turns liquid. Turning to `CC(C)[C@@H](CN1CCN(c2cccc(O)c2)[C@@H](C)C1)NC(=O)c1ccc(Oc2cccc(Br)c2)cc1.Cl.Cl` [Compound 19d, 4-(3-Bromophenoxy)-N-[(1S)-1-{[(3S)-4-(3-hydroxyphenyl)-3-methylpiperazin-1-yl]methyl}-2-methylpropyl]benzamide Dihydrochloride], the melting point lay in the range of 106 to 109 °C. Also, the Kb in series [1] (setting [4]) worked out at 17 ± 6.3 nM. Also, the Kb in series [2] (setting [5]) is 42 ± 19 nM. The Kb in series [3] (setting [6]) worked out at 0.48 ± 0.02 nM. Besides, in series [3], the δ/κ is 88 and the μ/κ is recorded as 35.
Take `Cc1cc(C)cc(Oc2ccc(C(=O)N[C@H](CN3CCN(c4cccc(O)c4)[C@@H](C)C3)C(C)C)cc2)c1.Cl.Cl` [Compound 19f, 4-(3,5-Dimethylphenoxy)-N-[(1S)-1-{[(3S)-4-(3-hydroxyphenyl)-3-methylpiperazin-1-yl]methyl}-2-methylpropyl]benzamide Dihydrochloride]: the melting point is 117 to 120 °C. Besides, in series [1] (setting [4]), the Kb amounted to 25 ± 7 nM. Moreover, in series [2] (setting [5]), the Kb was determined as 78 ± 20 nM. For the same compound, the Kb in series [3] (setting [6]) came out at 0.98 ± 0.06 nM. Also, in series [3], the δ/κ is listed as 80 and the μ/κ is 26.
The compound `Cc1cccc(Oc2ccc(C(=O)N[C@H](CN3CCN(c4cccc(O)c4)[C@@H](C)C3)C(C)C)cc2O)c1.Cl.Cl` [Compound 19i, 3-Hydroxy-N-[(2S)-1-[(3S)-4-(3-hydroxyphenyl)-3-methylpiperazin-1-yl]-3-methylbutan-2-yl]-4-(3-methylphenoxy)benzamide Dihydrochloride] displayed a melting point of 195 to 200 °C. In addition, in series [1] (setting [4]), the Kb worked out at 13.7 ± 5.6 nM. Also, in series [2] (setting [5]), the Kb worked out at 81 ± 35 nM. In addition, in series [3] (setting [6]), the Kb is 0.57 ± 0.14 nM. In series [3], the δ/κ turned out to be 142 and the μ/κ is recorded as 24.
With `COc1cc(C(=O)N[C@H](CN2CCN(c3cccc(O)c3)[C@@H](C)C2)C(C)C)ccc1Oc1cc(C)ccc1O.Cl.Cl` [Compound 19o, 4-(2-Hydroxy-5-methylphenoxy)-N-[(1S)-1-{[(3S)-4-(3-hydroxyphenyl)-3-methylpiperazin-1-yl]methyl}-2-methylpropyl]-3-methoxybenzamide Dihydrochloride], the melting point was 100 to 103 °C. For the same compound, in series [1], the Kb is 10 ± 2.6 nM. For the same compound, the Kb in series [2] turned out to be 37 ± 13 nM. Besides, in series [3] (setting [6]), the Kb worked out at 6.2 ± 2.2 nM. For the same compound, in series [3], the δ/κ was found to be 6 and the μ/κ is on record as 2.
For the compound `COc1cc(C(=O)N[C@H](CN2CCN(c3cccc(O)c3)[C@@H](C)C2)C(C)C)ccc1Oc1ccccc1O.Cl.Cl` [Compound 19m, 4-(2-Hydroxyphenoxy)-N-[(1S)-1-{[(3S)-4-(3-hydroxyphenyl)-3-methylpiperazin-1-yl]methyl}-2-methylpropyl]-3-methoxybenzamide Dihydrochloride], the melting point was in the range of 95 to 97 °C. Also, the Kb in series [1] (setting [4]) came out at 74 ± 23 nM. This compound registered a Kb in series [2] of 67 ± 47 nM. In series [3] (setting [6]), the Kb came out at 16.3 ± 2.7 nM. In series [3], the δ/κ stood at 4 and the μ/κ was 5.
For `Cc1cccc(Oc2ccc(C(=O)N[C@H](CN3CCN(c4cccc(O)c4)[C@@H](C)C3)C(C)C)cc2)c1O.Cl.Cl` [Compound 19e, 4-(2-Hydroxy-3-methylphenoxy)-N-[(2S)-1-[(3S)-4-(3-hydroxyphenyl)-3-methylpiperazin-1-yl]-3-methylbutan-2-yl]benzamide Dihydrochloride], the melting point worked out at 173 °C. Moreover, the Kb in series [1] (setting [4]) came to 23.8 ± 8.9 nM. Besides, the Kb in series [2] (setting [5]) was determined as 92.7 ± 14 nM. For the same compound, the Kb in series [3] (setting [6]) was 0.34 ± 0.16 nM.
The compound `CC(C)[C@@H](CN1CCN(c2cccc(O)c2)[C@@H](C)C1)NC(=O)c1ccc(Oc2cccc(C(F)(F)F)c2)cc1` [Compound 19b, N-[(1S)-1-{[(3S)-4-(3-Hydroxyphenyl)-3-methylpiperazin-1-yl]methyl}-2-methylpropyl]-4-[3-(trifluoromethyl)phenoxy]benzamide] yielded a melting point of 110 to 115 °C. Also, the Kb in series [1] worked out at 21 ± 7.2 nM. This compound also registered a Kb in series [2] of 54 ± 19 nM. Besides, in series [3], the Kb came out at 1.2 ± 0.35 nM, the δ/κ is on record as 45 and the μ/κ amounted to 18.
Regarding `CC(C)[C@@H](CN1CCN(c2cccc(O)c2)[C@@H](C)C1)NC(=O)c1ccc(Oc2cccc(Cl)c2)cc1.Cl.Cl` [Compound 19c, 4-(3-Chlorophenoxy)-N-[(1S)-1-{[(3S)-4-(3-hydroxyphenyl)-3-methylpiperazin-1-yl]methyl}-2-methylpropyl]benzamide Dihydrochloride], the melting point was 103 to 105 °C. Further, the Kb in series [1] (setting [4]) was found to be 18 ± 7.2 nM. Besides, the Kb in series [2] (setting [5]) came to 8.3 ± 0.9 nM. For the same compound, the Kb in series [3] (setting [6]) stood at 0.42 ± 0.05 nM. Also, in series [3], the δ/κ turned out to be 20 and the μ/κ is listed as 43.
`Cc1cccc(Oc2ccc(C(=O)N[C@H](CN3CCN(c4cccc(O)c4)[C@@H](C)C3)C(C)C)cc2Cl)c1.Cl.Cl` [Compound 6l, 3-Chloro-N-[(2S)-1-[(3S)-4-(3-hydroxyphenyl)-3-methylpiperazin-1-yl]-3-methylbutan-2-yl]-4-(3-methylphenoxy)benzamide Dihydrochloride] returned a melting point of 154 to 158 °C. Moreover, in series [1] (setting [4]), the Kb was found to be 43 ± 10 nM. In series [2] (setting [5]), the Kb worked out at 1100 ± 262 nM. The “efficacy for the κ opioid receptor in words” value in series [3] ([35S]GTPγS in vitro functional assay) is listed as “high efficacy (low Ke values)”. Moreover, the Kb in series [3] (setting [6]) came to 0.29 ± 0.13 nM.
`CC(C)[C@@H](CN1CCN(c2cccc(O)c2)[C@@H](C)C1)NC(=O)c1ccc(Oc2ccccc2)nc1.Cl.Cl.Cl` [Compound 7b, N-[(2S)-1-[(3S)-4-(3-Hydroxyphenyl)-3-methylpiperazin-1-yl]-3-methylbutan-2-yl]-6-phenoxypyridine-3-carboxamide Trihydrochloride] returned a melting point of 168 to 170 °C. In addition, in series [1], the Kb came to 60 ± 11 nM. The compound also returned a Kb in series [2] of 1790 ± 63 nM. Further, in series [3], the Kb was 1.6 ± 0.3 nM, the δ/κ worked out at 1119 and the μ/κ was 38.
Compound `Cc1cccc(Oc2ccc(C(=O)N[C@H](CN3CCN(c4cccc(O)c4)[C@@H](C)C3)C(C)C)cc2C)c1.Cl.Cl` [Compound 19g, N-[(2S)-1-[(3S)-4-(3-Hydroxyphenyl)-3-methylpiperazin-1-yl]-3-methylbutan-2-yl]-3-methyl-4-(3-methylphenoxy)benzamide Dihydrochloride] returned a melting point of 124 to 130 °C. Also, the Kb in series [1] (setting [4]) was found to be 14.4 ± 3.9 nM. In series [2] (setting [5]), the Kb is 21 ± 6 nM. The Kb in series [3] (setting [6]) was determined as 0.16 ± 0.03 nM. Moreover, the δ/κ in series [3] (Dihydrochloride) was 131.
With `Cc1cccc(Oc2ccc(C(=O)N[C@H](CN3CCN(c4cccc(O)c4)[C@@H](C)C3)C(C)C)c(O)c2)c1.Cl.Cl` [Compound 19l, 2-Hydroxy-N-[(1S)-1-{[(3S)-4-(3-hydroxyphenyl)-3-methylpiperazin-1-yl]methyl}-2-methylpropyl]-4-(3-methylphenoxy)benzamide Dihydrochloride], the melting point was 119 to 123 °C. The same compound returned a Kb in series [1] of 145 ± 48 nM. Besides, the Kb in series [2] turned out to be 233 ± 90 nM. Further, in series [3], the Kb came out at 1.8 ± 0.3 nM, the δ/κ is 129 and the μ/κ amounted to 81.
Regarding `Cc1cccc(Oc2ccc(C(=O)N[C@H](CN3CCN(c4cccc(O)c4)[C@@H](C)C3)C(C)C)c(C)c2)c1.Cl.Cl` [Compound 19j, N-[(1S)-1-{[(3S)-4-(3-Hydroxyphenyl)-3-methylpiperazin-1-yl]methyl}-2-methylpropyl]-2-methyl-4-(3-methylphenoxy)benzamide Dihydrochloride], the melting point lay in the range of 164 to 167 °C. For the same compound, the Kb in series [1] was 14 ± 3 nM. The compound further registered a Kb in series [2] of 18 ± 3 nM. Moreover, the Kb in series [3] (setting [6]) is 0.65 ± 0.2 nM. Moreover, in series [3], the δ/κ came out at 28 and the μ/κ stood at 22.
`Cc1ccc(O)c(Oc2ccc(C(=O)N[C@H](CN3CCN(c4cccc(O)c4)[C@@H](C)C3)C(C)C)cc2Cl)c1.Cl.Cl` [Compound 19p, 3-Chloro-4-(2-hydroxy-5-methylphenoxy)-N-[(1S)-1-{[(3S)-4-(3-hydroxyphenyl)-3-methylpiperazin-1-yl]methyl}-2-methylpropyl]benzamide Dihydrochloride]: the melting point was in the range of 145 to 148 °C. The Kb in series [1] (setting [4]) was 8.2 ± 1.7 nM. For the same compound, in series [2] (setting [5]), the Kb is 15 ± 3.6 nM. Further, the Kb in series [3] (setting [6]) came out at 3 ± 1.1 nM. For the same compound, in series [3], the δ/κ worked out at 5 and the μ/κ was 3.
`COc1cc(C(=O)N[C@H](CN2CCN(c3cccc(O)c3)[C@@H](C)C2)C(C)C)ccc1Oc1cccc(C)c1.Cl.Cl` [Compound 19h, N-[(2S)-1-[(3S)-4-(3-Hydroxyphenyl)-3-methylpiperazin-1-yl]-3-methylbutan-2-yl]-3-methoxy-4-(3-methylphenoxy)benzamide Dihydrochloride]: the melting point was 128 to 131 °C. Moreover, the Kb in series [1] (setting [4]) is 35.1 ± 15 nM. Also, the Kb in series [2] (setting [5]) amounted to 93 ± 4 nM. In series [3] (setting [6]), the Kb stood at 0.25 ± 0.07 nM.
